For data set [1], the system named is NO production in LPS-stimulated RAW264.7 cells. The experiment in a line: Inhibition of nitric oxide (NO) production in LPS-stimulated RAW264.7 cells (Griess reagent). Type of data set: cell-based. The conditions noted are these: 1 μg/mL LPS, read-out: IC50 value, NO production inhibitory effect.
Experimental: (§1) RAW264.7 cells were cultured in Dulbecco’s modified essential medium (DMEM, Gibco). The cells were incubated at 37 °C in DMEM with 10% fetal bovine serum (FBS, Gibco), penicillin (100 U/mL, Gibco), and streptomycin sulfate (100 μg/mL, Gibco) under a humidified atmosphere containing 5% CO2. Briefly, 2 × 10^4 cells/well treated for 24 h with vehicle or compounds were examined for cell viability based on the MTT (3-(4,5-dimethylthiazol-2-yl)-2,5-diphenyltetrazolium bromide assay) method.[60] Survival of macrophage cells after treatment with compounds was measured at a wavelength of 570 nm.
(§2) RAW264.7 cells (2 × 10^4 cells/well) were stimulated with or without 1 μg/mL lipopolysaccharide (LPS, Sigma) for 24 h in the presence or absence of the test compounds at different concentrations. Afterward, 100 μL of the cell culture supernatant was mixed with 100 μL of Griess reagent.[61] The remaining cells from the Griess assay were then utilized to determine their viability by using the MTT colorimetric assay described above.
Data set [2] in a line: HepG2 cytotoxicity test (MTT, 48 h). The conditions noted are these: human, HepG2 cells.
Experimental: Human hepatocellular carcinoma HepG2 cells were cultured in DMEM (Gibco) supplemented with 10% FBS (Gibco) and 1% antibiotic–antimycotic (Gibco, 15240062). Once cells reached approximately 80% confluence, they were washed with PBS and detached using trypsin-EDTA (Gibco, 25200072) at 37 °C for 5 min. Cells were then seeded into 96-well plates at a density of 3 × 10^4 cells per well (100 μL/well) and incubated for 24 h at 37 °C in a humidified atmosphere with 5% CO2.
After the initial incubation, the medium was replaced with 100 μL of fresh medium containing the test compounds, and the cells were incubated for an additional 48 h. Cell viability was determined using the MTT assay, following standard protocols with untreated cells serving as the control. The percentage of cell viability was calculated using the following formula: % viability = [(number of viable cells)/(total cells)] × 100. The concentration of the test compounds was set at 80 μM for the screening.
Data set [3] can be described thus: RAW264.7 cell viability (MTT) alongside the NO assay. The conditions noted are these: RAW264.7 cells.
Experimental: as §1, §2

Molecules are shown by their SMILES. Read-outs that look alike come from different tables or passages of the source.

`C=C[C@H]1[C@H](O[C@@H]2O[C@H](CO)[C@@H](O)[C@H](O)[C@H]2O)OC=C(C(=O)O[C@H]2C[C@@H]3C(C(=O)OC)=CO[C@@H](O[C@@H]4O[C@H](CO)[C@@H](O)[C@H](O)[C@H]4O)[C@@H]3[C@H]2C)[C@H]1C[C@@H]1N[C@H](C(=O)O)Cc2c1[nH]c1ccccc21` [Compound 16, dipsaperine]: the IC50 (usually the concentration needed to halve the response being measured) in data set [1] (Mus musculus, RAW264.7, 24 h) came out at 17 ± 1.1 µM. The viability – broadly, a read-out of living cells in per cent, often relative to untreated cells – at 48 h, 80 µM was greater than 80% in data set [2] and 95.2 ± 2.1% in data set [3].
On the same counts, the results for `C=C[C@H]1[C@H](O[C@@H]2O[C@H](CO)C(O)[C@H](O)[C@H]2O)OC=C(C(=O)O[C@H]2C[C@@H]3CCOC(=O)[C@@H]3[C@H]2C)[C@H]1CC(OC)OC` (stereo partly drawn) [Compound 3, gomphandranoside C] are 23.8 ± 2.6 µM, greater than 80% and 103 ± 3.5%.
Take `C=C[C@@H]1[C@H](O[C@@H]2O[C@H](CO)[C@@H](O)[C@H](O)[C@H]2O)OC=C(C(=O)O[C@H]2C[C@@H]3C(C(=O)OC)=CO[C@H](O[C@@H]4O[C@H](CO)[C@@H](O)[C@H](O)[C@H]4O)[C@@H]3[C@H]2C)[C@@H]1/C(C=O)=C\C[C@H]1C(C(=O)O[C@H]2C[C@@H]3CCOC(=O)[C@@H]3[C@H]2C)=CO[C@@H](O[C@@H]2O[C@H](CO)[C@@H](O)[C@H](O)[C@H]2O)[C@H]1C=C` [Compound 8, gomphandranoside H]: in data set [1] (Mus musculus, RAW264.7, 24 h), the IC50 was 14.4 ± 1.2 µM. Moreover, in data set [3], the viability at 48 h, 80 µM turned out to be 100 ± 2.5%.
As to `COC(=O)C1=CO[C@@H](O[C@@H]2O[C@H](CO[C@H]3O[C@H](CO)[C@H](O)[C@H](O)[C@H]3O)[C@@H](O)[C@H](O)[C@H]2O)[C@@H]2[C@@H](C)[C@@H](O)C[C@H]12` [Compound 1, loganin 6′-O-α-D-galactopyranoside], the IC50 in data set [1] (24 h) was 9.18 ± 0.3 µM; in data set [1] (Mus musculus, RAW264.7, 24 h), 9.19 µM. The viability at 48 h, 80 µM in data set [3] was determined as 97.7 ± 2.3%.
For `C=CC1C(CC=O)C(C(=O)O[C@H]2CC3C(C(=O)OC)=CO[C@@H](O[C@@H]4O[C@H](CO)[C@@H](O)[C@H](O)[C@H]4O)C3[C@H]2C)=CO[C@H]1O[C@@H]1O[C@H](CO)[C@@H](O)[C@H](O)[C@H]1O` (stereo partly drawn) [Compound 12, cantleyoside], the 50% inhibitory concentration (IC50) in data set [1] (Mus musculus, RAW264.7, 24 h) was determined as 23.1 ± 1.7 µM.
As for `C[C@@H]1C[C@H]2[C@@H]3CCC4=CC(=O)C=C[C@]4(C)[C@@]3(F)[C@@H](O)C[C@]2(C)[C@@]1(O)C(=O)CO` [dexamethasone, reference compound], the half-maximal inhibitory concentration (IC50) in data set [1] (Mus musculus, RAW264.7, 24 h) amounted to 9.08 ± 0.5 µM. Besides, in data set [3], the viability at 48 h, 20 µM amounted to 96.3 ± 2.6%.
As for `C=C[C@H]1[C@H](O[C@@H]2O[C@H](CO)[C@@H](O)[C@H](O)[C@H]2O)OC=C(C(=O)O[C@H]2C[C@@H]3C(C(=O)OC)=CO[C@@H](O[C@H]4O[C@H](CO)[C@@H](O)[C@H](O)[C@H]4O)[C@@H]3[C@H]2C)[C@H]1C1=COC[C@@H]2[C@H]3[C@@H](O[C@@H]4O[C@H](CO)[C@@H](O)[C@H](O)[C@H]4O)OC=C(C(=O)O[C@H]4C[C@@H]5C(C(=O)OC)=CO[C@@H](OC6O[C@H](CO)[C@@H](O)[C@H](O)[C@H]6O)[C@@H]5[C@H]4C)[C@H]3C[C@H]12` (stereo partly drawn) [Compound 10, gomphandranoside K], the concentration for half-maximal inhibition (IC50) in data set [1] (Mus musculus, RAW264.7, 24 h) turned out to be 12.2 ± 1.1 µM. Moreover, in data set [3], the viability at 48 h, 80 µM was 96.7 ± 1.5%.
Take `C=C[C@H]1[C@H](O[C@@H]2O[C@H](CO)[C@@H](O)[C@H](O)[C@H]2O)OC=C(C(=O)O[C@H]2C[C@@H]3C(C(=O)OC)=CO[C@@H](O[C@@H]4O[C@H](CO)[C@@H](O)[C@H](O)[C@H]4O)[C@@H]3[C@H]2C)[C@H]1CC=O` [Compound 12, cantleyoside]: the values for the viability at 48 h, 80 µM in data set [2] and in data set [3] were greater than 80% and 93.9 ± 2.5%, respectively.

The values are drawn from publication PMC11877508, “Anti-inflammatory and Hepatoprotective Iridoid Glycosides from the Roots of Gomphandra mollis” (Journal of Natural Products, 2025).
